Where “and” joins values, the source holds several entries; their conditions need not be identical. Identical values can stand only once. Entries after “also recorded” stand apart in the source; their conditions may differ.
How the values were obtained:
[1] = target: aldehyde reductase (ALR1) (Bos taurus, UniProt Q3ZCJ2); assay: Aldehyde reductase; format: biochemical, calf; conditions: for IC50: ALR1 IC50(μM) ± SEM, enzyme partially purified from calf kidneys, triplicate
aldose reductase (ALR2) = aldose reductase (ALR2) (Bos taurus, UniProt P16116); assay: Aldose reductase; format: biochemical, calf; conditions: for selectivity for ALR2 over ALR1, result in words: ALR2 IC50 compared with ALR1 percent inhibition

aldehyde reductase (ALR1), sequence (Q3ZCJ2 whole entry): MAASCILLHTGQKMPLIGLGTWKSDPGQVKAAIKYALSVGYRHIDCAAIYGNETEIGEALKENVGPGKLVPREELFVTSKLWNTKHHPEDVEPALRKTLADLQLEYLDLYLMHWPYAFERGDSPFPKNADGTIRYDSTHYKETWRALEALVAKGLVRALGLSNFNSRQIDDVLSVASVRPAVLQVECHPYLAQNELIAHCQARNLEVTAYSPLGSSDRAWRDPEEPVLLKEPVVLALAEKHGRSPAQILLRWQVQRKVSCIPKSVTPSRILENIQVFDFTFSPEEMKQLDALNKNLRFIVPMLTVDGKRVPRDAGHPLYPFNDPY

ALR1 inhibitory activity, result in words [1] | ALR2 inhibitory activity, result in words (aldose reductase (ALR2)) | IC50 [1] | Compound | selectivity for ALR2 over ALR1, result in words (aldose reductase (ALR2))
active inhibitors | active inhibitors | 3.14 ± 0.41 µM | C/C(=N/N=c1/scc(-c2ccc(Cl)cc2)n1-c1ccccc1)c1ccc2c(c1)OCCO2 [Compound 7g, (Z)-4-(4-chlorophenyl)-2-((E)-(1-(2,3-dihydrobenzo[b][1,4]dioxin-6-yl)ethylidene) hydrazono)-3-phenyl-2,3-dihydrothiazole] | –
active inhibitors | active inhibitors | 2.94 ± 1.73 µM | C/C(=N/N=c1/scc(-c2ccc(Cl)cc2)n1-c1ccc(F)cc1)c1ccc2c(c1)OCCO2 [Compound 7h, (Z)-4-(4-chlorophenyl)-2-((E)-(1-(2,3-dihydrobenzo[b][1,4]dioxin-6-yl)ethylidene) hydrazono)-3-(4-fluorophenyl)-2,3-dihydrothiazole] | –
active inhibitors | active inhibitors | 2.2 ± 0.92 µM | C/C(=N/N=c1/scc(-c2ccc(Cl)cc2)n1Cc1ccccc1)c1ccc2c(c1)OCCO2 [Compound 7i, (Z)-3-benzyl-4-(4-chlorophenyl)-2-((E)-(1-(2,3-dihydrobenzo[b][1,4]dioxin-6-yl)ethylidene)hydrazono)-2,3-dihydrothiazole] | –
active inhibitors | active inhibitors | 2.94 ± 1.34 µM | O=[N+]([O-])c1ccc(-c2cs/c(=N/N=C\c3c[nH]c4ccccc34)n2Cc2ccccc2)cc1 [Compound 8e, (Z)-2-((E)-((1H-indol-3-yl)methylene)hydrazono)-3-benzyl-4-(4-nitrophenyl)-2,3-dihydrothiazole] | –

Continued, molecule first:

Compound | ALR1 inhibitory activity, result in words [1] | ALR2 inhibitory activity, result in words (aldose reductase (ALR2)) | IC50 [1] | selectivity for ALR2 over ALR1, result in words (aldose reductase (ALR2))
COc1cccc(-n2c(-c3ccc(Br)cc3)cs/c2=N/N=C(/C)c2ccc3c(c2)NC(=O)CO3)c1 [Compound 5b, 6-((E)-1-((Z)-(4-(4-bromophenyl)-3-(3-methoxyphenyl)thiazol-2(3H)-ylidene) hydrazono)ethyl)-2H-benzo[b][1,4]oxazin-3(4H)-one] | weak activity | weak activity | – | –
COc1cccc(-n2c(-c3ccc([N+](=O)[O-])cc3)cs/c2=N/N=C(/C)c2ccc3c(c2)NC(=O)CO3)c1 [Compound 5f, 6-((E)-1-((Z)-(3-(3-methoxyphenyl)-4-(4-nitrophenyl)thiazol-2(3H)-ylidene) hydrazono)ethyl)-2H-benzo[b][1,4]oxazin-3(4H)-one] | active inhibitors | active inhibitors | 3.13 µM and 3.24 µM | –
COc1cccc(-n2c(-c3ccc(Cl)cc3)cs/c2=N/N=C(/C)c2ccc3c(c2)NC(=O)CO3)c1 [Compound 5j, 6-((E)-1-((Z)-(4-(4-chlorophenyl)-3-(3-methoxyphenyl)thiazol-2(3H)-ylidene) hydrazono)ethyl)-2H-benzo[b][1,4]oxazin-3(4H)-one] | weak activity | weak activity | – | –
CC(=N/N=c1\scc(-c2ccc(Br)cc2)n1-c1ccccc1)C12CC3CC(CC(C3)C1)C2 [Compound 6a, (2Z)-2-((1-(adamantan-1-yl)ethylidene)hydrazono)-4-(4-bromophenyl)-3-phenyl-2,3-dihydrothiazole] | active inhibitors | active inhibitors | 3.29 ± 1.47 µM | –
CC(=N/N=c1\scc(-c2ccc(Br)cc2)n1-c1cccc2ccccc12)C12CC3CC(CC(C3)C1)C2 [Compound 6b, (2Z)-2-((1-(adamantan-1-yl)ethylidene)hydrazono)-4-(4-bromophenyl)-3-(naphthalen-1-yl)-2,3-dihydrothiazole] | active inhibitors | active inhibitors | 4.93 ± 1.86 µM | –
CC(=N/N=c1\scc(-c2ccc(Br)cc2)n1-c1ccccc1C)C12CC3CC(CC(C3)C1)C2 [Compound 6c, (2Z)-2-((1-(adamantan-1-yl)ethylidene)hydrazono)-4-(4-bromophenyl)-3-(o-tolyl)-2,3-dihydrothiazole] | active inhibitors | active inhibitors | 4.07 ± 2.35 µM | –
CC(=N/N=c1\scc(-c2ccc(Br)cc2)n1-c1c(C)cccc1C)C12CC3CC(CC(C3)C1)C2 [Compound 6d, (2Z)-2-((1-(adamantan-1-yl)ethylidene)hydrazono)-4-(4-bromophenyl)-3-(2,6-dimethylphenyl)-2,3-dihydrothiazole] | – | – | – | selective ALR2 inhibitors; also recorded: good inhibitory activity and selectively against ALR2
CC(=N/N=c1\scc(-c2ccc(Cl)cc2)n1Cc1ccccc1)C12CC3CC(CC(C3)C1)C2 [Compound 6e, (2Z)-2-((1-(adamantan-1-yl)ethylidene)hydrazono)-3-benzyl-4-(4-chlorophenyl)-2,3-dihydrothiazole] | – | – | – | selective ALR2 inhibitors; also recorded: good inhibitory activity and selectively against ALR2
CC(=N/N=c1\scc(-c2ccc(Cl)cc2)n1-c1c(C)cccc1C)C12CC3CC(CC(C3)C1)C2 [Compound 6f, (2Z)-2-((1-(adamantan-1-yl)ethylidene)hydrazono)-4-(4-chlorophenyl)-3-(2,6-dimethylphenyl)-2,3-dihydrothiazole] | – | – | – | selective ALR2 inhibitors; also recorded: good inhibitory activity and selectively against ALR2
C/C(=N/N=c1/scc(-c2ccc(Br)cc2)n1-c1ccccc1)c1ccc2c(c1)OCCO2 [Compound 7a, (Z)-4-(4-bromophenyl)-2-((E)-(1-(2,3-dihydrobenzo[b][1,4]dioxin-6-yl)ethylidene) hydrazono)-3-phenyl-2,3-dihydrothiazole] | – | – | – | selective ALR2 inhibitors
C/C(=N/N=c1/scc(-c2ccc(Br)cc2)n1Cc1ccccc1)c1ccc2c(c1)OCCO2 [Compound 7b, (Z)-3-benzyl-4-(4-bromophenyl)-2-((E)-(1-(2,3-dihydrobenzo[b][1,4]dioxin-6-yl)ethylidene)hydrazono)-2,3-dihydrothiazole] | – | – | – | selective ALR2 inhibitors; also recorded: excellent selectivity; also recorded: considerably selective activity against ARL2; also recorded: significantly selective
C/C(=N/N=c1/scc(-c2ccc(Br)cc2)n1-c1c(C)cccc1C)c1ccc2c(c1)OCCO2 [Compound 7c, (Z)-4-(4-bromophenyl)-2-((E)-(1-(2,3-dihydrobenzo[b][1,4]dioxin-6-yl)ethylidene) hydrazono)-3-(2,6-dimethylphenyl)-2,3-dihydrothiazole] | – | – | – | selective ALR2 inhibitors
COc1cccc(-n2c(-c3ccc([N+](=O)[O-])cc3)cs/c2=N/N=C\c2c[nH]c3ccccc23)c1 [Compound 8f, (Z)-2-((E)-((1H-indol-3-yl)methylene)hydrazono)-3-(3-methoxyphenyl)-4-(4-nitrophenyl)-2,3-dihydrothiazole] | – | – | – | selective ALR2 inhibitor
